Test results reported in patent US7179817B2, “Carboxylic acid derivatives and drugs containing the same as the active ingredient” (ONO Pharmaceutical Co., Ltd., priority 2001, dated 2007).
Where a name gives a salt, the structure may show the parent alone.

Target: T1, human EDG-1 (Homo sapiens, UniProt P21453)
T1 construct: expressed in transfected cells; host or cells: CHO (Chinese Hamster Ovary) cells, cultured under Blasticidin selection
Assay: Assessment of an agonistic action by monitoring the intracellular calcium ion
Type: cell-based
Settings: human EDG-1 gene over expression CHO cells; Fura2 intracellular Ca2+ increase; Concentration of Half-100 nM S1P Ca2+ release
Description: (1) Assessment of an Agonistic Action by Monitoring the Intracellular Calcium Ion
The assessment of an agonistic action for the receptor was carried out using the human EDG-1 gene over expression cells (Chinese Hamster Ovary, CHO). EDG-1 expression cells were cultured with Ham's F12 (GIBCO BRL, No. 11765-047) medium containing 10% FBS, Penicillin/Streptomycin and Blasticidin (5 μg/mL). First, in order to load Fura2-AM (Dojindo, No. 348-05831) in the cells, the cells were incubated by 5 μM Fura2-AM solution (Ham's F12 medium containing 10% FBS, 20 mM HEPES pH7.4, 2.5 mM Probenecid (Sigma, catalog No.P-8761)) at 37° C. for 60 min. Next, the cells were washed once by Hanks solution containing 20 mM HEPES pH7.4, 2.5 mM Probenecid and soaked in the Hanks solution until assay.
The plate was set on the fluorescence drug screening system (Hamamatsu photonics FDSS-2000). After measurement of the background signal for […], the solution of the assay compound was added. The test compounds were added at the final concentration range of between 0.1 nM and 10 μM as the final dimethyl sulfoxide (DMSO) concentration made to 1/1000 of the original solution. Fura2-Ca^2+ fluorescence excited at 340 nm and 380 nm was measured every 3 seconds at emission wavelength 500 nm. Intracellular Ca^2+ concentration was assessed with fluorescent ratio of excitation wavelength 340 nm and 380 nm. Agonistic activity was calculated as below, that is, the control value (A) was obtained by measuring the response of 100 nM S1P (BIOMOL:M9076) after adding DMSO to the well for the test compounds, and (A) was compared with the value (B) which is the difference of fluorescent ratio obtained by measuring response between the pre and post of test compounds added. Rate of intracellular Ca^2+ increase (%) was calculated as following equation. rate of increase (%)=(B/A)×100
Moreover, rate of increase was calculated at each concentration and EC50 (Concentration of Half—100 nM S1P Ca^2+ release) of each compound was calculated setting the maximal concentration of the compound giving the response corresponding to that of S1P at the concentration of 100 nM.

T1 sequence (P21453 whole entry): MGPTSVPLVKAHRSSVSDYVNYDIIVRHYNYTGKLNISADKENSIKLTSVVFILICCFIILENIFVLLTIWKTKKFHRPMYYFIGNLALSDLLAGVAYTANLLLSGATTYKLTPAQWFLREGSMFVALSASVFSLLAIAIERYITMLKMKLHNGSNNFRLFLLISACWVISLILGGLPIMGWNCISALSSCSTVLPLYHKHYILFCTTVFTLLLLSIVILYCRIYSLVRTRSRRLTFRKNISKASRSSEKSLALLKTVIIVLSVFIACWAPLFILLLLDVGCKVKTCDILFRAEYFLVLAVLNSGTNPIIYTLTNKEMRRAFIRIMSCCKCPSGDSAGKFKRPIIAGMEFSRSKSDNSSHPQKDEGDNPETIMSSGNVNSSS

Row | SMILES | EC50 [nM]
1 | O=C(NCCc1ccc(OCCCCCc2ccccc2)cc1)c1ccc(Cl)c(C(=O)O)c1 [Example 16, 2-chloro-5-[2-(4-(5-phenylpentyloxy)phenyl)ethylaminocarbonyl]benzoic acid] | 8.3
2 | O=C(CCc1ccc(OCCCCCc2ccccc2)cc1)Nc1ccc(C(=O)O)c(C(=O)O)c1 [Example 2(3), 2-carboxy-5-[3-(4-(5-phenylpentyloxy)phenyl)propanoylamino]benzoic acid] | 1.4
3 | O=C(O)CCNCCc1ccc(OCCCCCc2ccccc2)cc1 [Example 32, 3-[2-(4-(5-phenylpentyloxy)phenyl)ethylamino]propanoic acid hydrochloride] | 30
4 | O=C(O)c1cncc(C(=O)NCCc2ccc(OCCCCCc3ccccc3)cc2)c1 [Example 16(3), 5-[2-(4-(5-phenylpentyloxy)phenyl)ethylaminocarbonyl]pyridine-3-carboxylic acid] | 4.5
5 | O=C(NCCc1ccc(OCCCCCc2ccccc2)cc1)c1ccc(C(=O)O)c(C(=O)O)c1 [Example 19, 2-carboxy-5-[2-(4-(5-phenylpentyloxy)phenyl)ethylaminocarbonyl]benzoic acid] | 1.5
6 | O=C(O)CNC(=O)CCc1ccc(CCCCCCc2ccccc2)cc1 [Example 28, 2-[3-(4-(6-phenylhexyl)phenyl)propanoylamino]acetic acid] | 25
7 | O=C(CCc1ccc(OCCCCCc2ccccc2)cc1)Nc1cc(Cl)c(Cl)c(C(=O)O)c1 [Example 9(6), 2,3-dichloro-5-[3-(4-(5-phenylpentyloxy)phenyl)propanoylamino]benzoic acid] | 7.3
8 | O=C(CCc1ccc(OCCCCCc2ccccc2)cc1)Nc1ccc(Cl)c(C(=O)O)c1 [Example 2(1), 2-chloro-5-[3-(4-(5-phenylpentyloxy)phenyl)propanoylamino]benzoic acid] | 9
